Data set [1] has as its system Fusarium culmorum. In words: whole plant or invertebrate. The conditions noted are these: in Triticum aestivum, read-out: control of Fusarium culmorum. It counts as in vivo, Fusarium culmorum on wheat spikelets cv. Monsun.

The results in this text go back to patent US20220030867A1 (priority 2018, published 2022).

As to `Cc1c(NC(=O)C(C)(Cc2ccccc2)CC(C)C)cnc2c(Cl)cccc12` (centres unmarked) [Compound E-14, 2-benzyl-N-(8-chloro-4-methyl-3-quinolyl)-2,4-dimethyl-pentanamide], the melting point (as a rule, the temperature, or range, at which the solid turns liquid) lay in the range of 124 to 126 °C.

As for `C=C(C)CC(C)(Cc1ccccc1)C(=O)Nc1cnc2ccccc2c1` (centres unmarked) [Compound E-64, 2-benzyl-2,4-dimethyl-N-(3-quinolyl)pent-4-enamide], in data set [1], the pest or weed control at 200 ppm is at least 80%.

As to `COC(C)(Cc1ccccc1)C(=O)Nc1cc2cccc(F)c2nc1C` (centres unmarked) [Compound E-41, N-(8-fluoro-2-methyl-3-quinolyl)-2-methoxy-2-methyl-3-phenyl-propanamide], the pest or weed control at 200 ppm in data set [1] was at least 80%.

In the case of `CC(Cc1ccccc1)(CC(F)(F)Cl)C(=O)Nc1cnc2c(F)cccc2c1` (centres unmarked) [Compound E-56, 2-benzyl-4-chloro-4,4-difluoro-N-(8-fluoro-3-quinolyl)-2-methyl-butanamide], the pest or weed control at 200 ppm in data set [1] was at least 80%.

Consider `C/C=C(\C)CC(C)(Cc1ccccc1)C(=O)Nc1cnc2c(F)cccc2c1` (centres unmarked) [Compound E-32, (E)-2-benzyl-N-(8-fluoro-3-quinolyl)-2,4-dimethyl-hex-4-enamide], for which the pest or weed control at 200 ppm in data set [1] was at least 80%.

On to `CC(Cc1ccccc1)C(=O)Nc1cnc2c(F)cccc2c1` (centres unmarked) [Compound E-31, N-(8-fluoro-3-quinolyl)-2-methyl-3-phenyl-propanamide], for which the melting point lay within 188 to 190 °C.

Consider `C=C(C)CC(C)(Cc1cccc(F)c1)C(=O)Nc1cnc2c(F)cccc2c1` (centres unmarked) [Compound E-11, 2-[(3-fluorophenyl)-methyl]-N-(8-fluoro-3-quinolyl)-2,4-dimethyl-pent-4-enamide], for which the melting point was 125 to 127 °C.

On to `CC(C)(Cc1ccccc1)C(=O)Nc1cnc2c(F)cccc2c1` [Compound E-69, N-(8-fluoro-3-quinolyl)-2,2-dimethyl-3-phenyl-propanamide], for which the pest or weed control at 200 ppm in data set [1] is at least 80%.

On to `CC(C=C(F)F)(Cc1ccccc1)C(=O)Nc1cnc2c(F)cccc2c1` (centres unmarked) [Compound E-57, 2-benzyl-4,4-difluoro-N-(8-fluoro-3-quinolyl)-2-methyl-but-3-enamide], for which, in data set [1], the pest or weed control at 200 ppm is at least 80%.

`CC(C)CC(C)(Cc1ccccc1)C(=O)Nc1cnc2c(Cl)cccc2c1` (centres unmarked) [Compound E-9, 2-benzyl-N-(8-chloro-3-quinolyl)-2,4-dimethyl-pentanamide] yielded a melting point of 163 to 165 °C.

Consider `CCCC(C)(Cc1ccccc1)C(=O)Nc1cnc2c(F)cccc2c1` (centres unmarked) [Compound E-77, 2-benzyl-N-(8-fluoro-3-quinolyl)-2-methyl-pentanamide], for which the pest or weed control at 200 ppm in data set [1] is at least 80%.

As to `Cc1c(NC(=O)[C@@](C)(Cc2ccccc2)CC(F)(F)F)cnc2c(F)cccc12` [Compound F-14, (2S)-2-benzyl-4,4,4-trifluoro-N-(8-fluoro-4-methyl-3-quinolyl)-2-methyl-butanamide], in data set [1], the pest or weed control at 200 ppm is at least 80%.

As to `CC(C)OC(C)(Cc1ccccc1)C(=O)Nc1cnc2c(F)cccc2c1` (centres unmarked) [Compound E-40, N-(8-fluoro-3-quinolyl)-2-isopropoxy-2-methyl-3-phenyl-propanamide], the pest or weed control at 200 ppm in data set [1] is at least 80%.

For the compound `C=C(C)CC(C)(Cc1ccccc1)C(=O)Nc1cc2cccc(F)c2nc1C` (centres unmarked) [Compound E-66, 2-benzyl-N-(8-fluoro-2-methyl-3-quinolyl)-2,4-dimethyl-pent-4-enamide], the pest or weed control at 200 ppm in data set [1] is at least 80%.

Take `Cc1nc2c(F)cccc2cc1NC(=O)C(C)(Cc1ccccc1)CC(F)(F)F` (centres unmarked) [Compound E-47, 2-benzyl-4,4,4-trifluoro-N-(8-fluoro-2-methyl-3-quinolyl)-2-methyl-butanamide]: the pest or weed control at 200 ppm in data set [1] is at least 80%.

Compound `CN(C(=O)C(C)(Cc1ccccc1)CC(F)(F)F)c1cnc2c(F)cccc2c1` (centres unmarked) [Compound E-42, 2-benzyl-4,4,4-trifluoro-N-(8-fluoro-3-quinolyl)-N,2-dimethyl-butanamide] gave a melting point of 137 to 139 °C.

As for `CC(Cc1ccccc1)(CC(F)(F)F)C(=O)Nc1cnc2cccc(F)c2c1` (centres unmarked) [Compound E-49, 2-benzyl-4,4,4-trifluoro-N-(5-fluoro-3-quinolyl)-2-methyl-butanamide], the melting point fell in the range of 140 to 142 °C.

Take `CC1(CC(C)(Cc2ccccc2)C(=O)Nc2cnc3c(F)cccc3c2)CC1` (centres unmarked) [Compound E-70, 2-benzyl-N-(8-fluoro-3-quinolyl)-2-methyl-3-(1-methylcyclopropyl)propanamide]: the melting point fell in the range of 149 to 151 °C.

For `CC(Cc1ccccc1)(CC(F)F)C(=O)Nc1cnc2c(F)cccc2c1` (centres unmarked) [Compound E-55, 2-benzyl-4,4-difluoro-N-(8-fluoro-3-quinolyl)-2-methyl-butanamide], the pest or weed control at 200 ppm in data set [1] was at least 80%.

In the case of `Cc1nc2c(F)cccc2cc1NC(=O)C(C)(Cc1ccccc1)OC(C)C` (centres unmarked) [Compound E-39, N-(8-fluoro-2-methyl-3-quinolyl)-2-isopropoxy-2-methyl-3-phenyl-propanamide], the pest or weed control at 200 ppm in data set [1] was at least 80%.

Take `Cc1nc2c(F)cccc2cc1NC(=O)[C@@](C)(Cc1ccccc1)CC(C)C` [Compound F-8, (2R)-2-benzyl-N-(8-fluoro-2-methyl-3-quinolyl)-2,4-dimethyl-pentanamide]: the pest or weed control at 200 ppm in data set [1] is at least 80%.

For the compound `Cc1c(NC(=O)[C@](C)(Cc2ccccc2)CC(F)(F)F)cnc2c(F)cccc12` [Compound F-13, (2R)-2-benzyl-4,4,4-trifluoro-N-(8-fluoro-4-methyl-3-quinolyl)-2-methyl-butanamide], the pest or weed control at 200 ppm in data set [1] was at least 80%.

`CC(Cc1ccccc1)(CC(F)(F)F)C(=O)Nc1cnc2cc(F)ccc2c1` (centres unmarked) [Compound E-52, 2-benzyl-4,4,4-trifluoro-N-(7-fluoro-3-quinolyl)-2-methyl-butanamide] registered a melting point of 180 to 182 °C.

For the compound `Cc1c(NC(=O)C(C)(Cc2ccccc2)CC(F)(F)F)cnc2c(Cl)cccc12` (centres unmarked) [Compound E-15, 2-benzyl-N-(8-chloro-4-methyl-3-quinolyl)-4,4,4-trifluoro-2-methyl-butanamide], the melting point lay in the range of 73 to 75 °C.

Take `Cc1nc2c(F)cccc2cc1NC(=O)[C@](C)(Cc1ccccc1)CC(C)C` [Compound F-7, (2S)-2-benzyl-N-(8-fluoro-2-methyl-3-quinolyl)-2,4-dimethyl-pentanamide]: the pest or weed control at 200 ppm in data set [1] was at least 80%.

`COCN(C(=O)C(C)(Cc1ccccc1)CC(F)(F)F)c1cnc2c(F)cccc2c1` (centres unmarked) [Compound E-33, 2-benzyl-4,4,4-trifluoro-N-(8-fluoro-3-quinolyl)-N-(methoxymethyl)-2-methyl-butanamide] had a melting point of 108 to 110 °C.

With `CC(Cc1ccccc1)(CC(F)(F)F)C(=O)Nc1cnc2ccccc2c1` (centres unmarked) [Compound E-81, 2-benzyl-4,4,4-trifluoro-2-methyl-N-(3-quinolyl)butanamide], the pest or weed control at 200 ppm in data set [1] was at least 80%.

In the case of `CC(C)CC(Cc1ccccc1)C(=O)Nc1cnc2c(F)cccc2c1` (centres unmarked) [Compound E-35, 2-benzyl-N-(8-fluoro-3-quinolyl)-4-methyl-pentanamide], the pest or weed control at 200 ppm in data set [1] was at least 80%.

`CC(C)CC(C#N)(Cc1ccccc1)C(=O)Nc1cnc2c(F)cccc2c1` (centres unmarked) [Compound E-83, 2-benzyl-2-cyano-N-(8-fluoro-3-quinolyl)-4-methyl-pentanamide]: the pest or weed control at 200 ppm in data set [1] is at least 80%.
